# Laboratory results as given in US20200163984A1, “USE OF ISOVALERYL SPIRAMYCIN I, II AND/OR III IN MANUFACTURING MEDICAMENT FOR TREATING AND/OR PREVENTING TUMOR, AND MEDICAMENT” (SHENYANG FUYANG PHARMACEUTICAL TECHNOLOGY CO., LTD., priority 2017, published 2020).
# Key:
# [1] = Thymus index and spleen index of Lewis lung cancer tumor-bearing mice; details: n = 6
# Procedure: In the Lewis lung cancer model, the mice inoculated with the tumor were randomly divided into groups with 10 mice in each group the next day of inoculation. The groups included: a model control group, a positive drug cyclophosphamide control group (CTX, 30 mg/kg), isovaleryl spiramycin I groups with doses of 13, 26 and 52 mg/kg; isovaleryl spiramycin II groups with doses of 13, 26 and 52 mg/kg; isovaleryl spiramycin III groups with doses of 13, 26 and 52 mg/kg. Each group was continuously administered intragastrically for 15 days with a dose of 20 ml/kg.
# [2] = tested on: transplanted tumor of human glioma cell U251; test: U251 transplanted tumor in nude mice; details: for Tumor Volume (mm3) (d 1): d1
# Procedure: (§1) U251 cells in a logarithmic growth phase were taken and subjected to a trypan blue exclusion experiment showing that the cell viability was more than 95%, then the cells were subjected to trypsinization, centrifugation, and supernatant removal. Then cell concentration was adjusted to 1×10^7/ml with matrigel, then each nude mouse was inoculated subcutaneously with 0.2 ml of cells at its right armpit and recorded as the first day of inoculation. When the tumor grows to be greater than or equal to 100 mm^3, the mice were randomly divided into 11 groups with 6 mice in each group: a model group, a cyclophosphamide group, isovaleryl spiramycin I groups with doses of 25, 50 and 100 mg/kg, isovaleryl spiramycin II groups with doses of 25, 50 and 100 mg/kg, and isovaleryl spiramycin III groups with doses of 25, 50 and 100 mg/kg. Each group was continuously administered intragastrically for 30 days with a dose of 20 ml/kg. The mice were sacrificed the next day after drug withdrawal and the indicators were tested. The long diameter and short diameter of the tumor, and the body weight of each mouse were recorded every 3 days from drug administration to nude mouse sacrifice.
# (§2) The body weight of the nude mice and the long diameter (a) and short diameter (b) of the transplanted tumor were measured every 3 days, and the tumor volume (v), relative tumor volume (RTV) and relative tumor proliferation rate (T/C) are calculated respectively according to the following formulas, wherein V=a×b^2/2; RTV=V/V0 (V0 is the tumor volume before administration, V is the tumor volume before sacrifice), and T/C (%)=treatment group RTV/model control group RTV×100%.
# (§3) Each mouse was weighed and sacrificed. After the tumor was completely stripped off from the body of the mouse, the non-tumor tissues such as blood stains and fat were removed to weigh the tumor and calculate the tumor growth inhibition rate. The average tumor weight of each group of mice is used as an indicator of efficacy. Tumor growth inhibition rate (%)=(1−the average tumor weight of the treatment group/the average tumor weight of the model group)×100%.
# [3] = Thymus index and spleen index of H22 liver cancer tumor-bearing mice
# Procedure: In the H22 liver cancer model, the mice inoculated with the tumor were randomly divided into groups with 10 mice in each group on the next day of inoculation. The groups included: a model control group, a positive drug cyclophosphamide control group (CTX, 26 mg/kg), isovaleryl spiramycin I groups with doses of 13, 26 and 52 mg/kg; isovaleryl spiramycin II groups with doses of 13, 26 and 52 mg/kg; isovaleryl spiramycin III groups with doses of 13, 26 and 52 mg/kg. Each group was continuously administered intragastrically for 7 days with a dose of 20 ml/kg.
# [4] = tested on: transplanted tumor of human breast cancer cell MDA-MB-231; test: MDA-MB-231 transplanted tumor in nude mice
# Procedure: as §1, with “Then” for “U251 cells in a logarithmic growth phase were taken and subjected to a trypan blue exclusion experiment showing that the cell viability was more than 95%, then the cells were subjected to trypsinization, centrifugation, and supernatant removal. Then”
# as §2, §3
# [5] = U251, high dose (100 mg/kg in method) i.g. 30 days
# [6] = U251, low dose (25 mg/kg in method) i.g. 30 days
# [7] = U251, medium dose (50 mg/kg in method) i.g. 30 days
# [8] = MDA-MB-231, 25 mg/kg (low dose) i.g. 30 days
# [9] = MDA-MB-231, 50 mg/kg (medium dose) i.g. 30 days
# [10] = MDA-MB-231, 100 mg/kg (high dose) i.g. 30 days
compound,measurement,setting,value
"CCC(=O)O[C@@H]1CC(=O)O[C@H](C)C/C=C/C=C/[C@H](O[C@H]2CC[C@H](N(C)C)[C@@H](C)O2)[C@H](C)C[C@H](CC=O)[C@H](O[C@@H]2O[C@H](C)[C@@H](O[C@H]3C[C@@](C)(O)[C@@H](OC(=O)CC(C)C)[C@H](C)O3)[C@H](N(C)C)[C@H]2O)[C@H]1OC [Isovaleryl spiramycin III, isovaleryl spiramycin III]",Spleen Index (%),[1]; dose 13 mg/kg,0.62 ± 0.25%
same,Thymus Index (%),[1]; dose 13 mg/kg,0.12 ± 0.10%
same,Spleen Index (%),[1]; dose 26 mg/kg,0.68 ± 0.11%
same,Thymus Index (%),[1]; dose 26 mg/kg,0.11 ± 0.07%
same,Spleen Index (%),[1]; dose 52 mg/kg,0.74 ± 0.23%
same,Thymus Index (%),[1]; dose 52 mg/kg,0.13 ± 0.06%
same,Relative Tumor Proliferation Rate (T/C),[2]; [5],41.10%
same,tumor growth inhibition rate,[2]; [5],59.56%
same,Relative Tumor Proliferation Rate (T/C),[2]; [6],68.16%
same,tumor growth inhibition rate,[2]; [6],15.45%
same,tumor volume and relative tumor volume compared with the model group,"[2]; U251, low, medium and high doses, P<0.05",significantly lower
same,Relative Tumor Proliferation Rate (T/C),[2]; [7],54.34%
same,tumor growth inhibition rate,[2]; [7],32.74%
same,Inhibition Rate (%),"[2]; U251 nude mice, 25 mg/kg",15.45%
same,Relative Tumor Proliferation Rate (T/C),"[2]; U251 nude mice, 25 mg/kg",68.16%
same,Relative Tumor Volume (RTV),"[2]; U251 nude mice, 25 mg/kg",13.47 ± 1.67
same,Tumor Weight,"[2]; U251 nude mice, 25 mg/kg",1.17 ± 0.11 g
same,Tumor Volume (mm3) (d 1),"[2]; U251 nude mice, 25 mg/kg",124.24 ± 10.18 mm3
same,Tumor Volume (mm3) (d30),"[2]; U251 nude mice, 25 mg/kg",1413.41 ± 221.90 mm3
same,Inhibition Rate (%),"[2]; U251 nude mice, 50 mg/kg",32.74%
same,Relative Tumor Proliferation Rate (T/C),"[2]; U251 nude mice, 50 mg/kg",54.34%
same,Relative Tumor Volume (RTV),"[2]; U251 nude mice, 50 mg/kg",12.63 ± 1.27
same,Tumor Weight,"[2]; U251 nude mice, 50 mg/kg",0.93 ± 0.12 g
same,Tumor Volume (mm3) (d 1),"[2]; U251 nude mice, 50 mg/kg",121.24 ± 9.15 mm3
same,Tumor Volume (mm3) (d30),"[2]; U251 nude mice, 50 mg/kg",1096.57 ± 173.49 mm3
same,Inhibition Rate (%),"[2]; U251 nude mice, 100 mg/kg",59.56%
same,Relative Tumor Proliferation Rate (T/C),"[2]; U251 nude mice, 100 mg/kg",41.10%
same,Relative Tumor Volume (RTV),"[2]; U251 nude mice, 100 mg/kg",10.96 ± 0.82
same,Tumor Weight,"[2]; U251 nude mice, 100 mg/kg",0.56 ± 0.05 g
same,Tumor Volume (mm3) (d 1),"[2]; U251 nude mice, 100 mg/kg",120.86 ± 6.34 mm3
same,Tumor Volume (mm3) (d30),"[2]; U251 nude mice, 100 mg/kg",832.79 ± 182.98 mm3
same,mouse weight compared with the model group,"[2]; mouse, in vivo",no significant changes
same,Body Weight (g) (d1),"[2]; mouse, in vivo, 25 mg/kg",20.96 ± 0.58 g
same,Body Weight (g) (d30),"[2]; mouse, in vivo, 25 mg/kg",20.70 ± 0.51 g
same,Body Weight (g) (d1),"[2]; mouse, in vivo, 50 mg/kg",21.25 ± 0.53 g
same,Body Weight (g) (d30),"[2]; mouse, in vivo, 50 mg/kg",21.10 ± 0.60 g
same,Body Weight (g) (d1),"[2]; mouse, in vivo, 100 mg/kg",21.33 ± 0.62 g
same,Body Weight (g) (d30),"[2]; mouse, in vivo, 100 mg/kg",21.03 ± 0.55 g
same,Spleen Index (%),[3]; dose 13 mg/kg,0.68 ± 0.15%
same,Thymus Index (%),[3]; dose 13 mg/kg,0.15 ± 0.06%
same,Spleen Index (%),[3]; dose 26 mg/kg,0.66 ± 0.21%
same,Thymus Index (%),[3]; dose 26 mg/kg,0.15 ± 0.05%
same,Spleen Index (%),[3]; dose 52 mg/kg,0.65 ± 0.26%
same,Thymus Index (%),[3]; dose 52 mg/kg,0.13 ± 0.02%
same,Inhibition Rate (tumor growth inhibition rate),[4]; [8],24.35%
same,Relative Tumor Proliferation Rate (T/C),[4]; [8],68.36%
same,Relative Tumor Volume (RTV),[4]; [8],10.68 ± 2.47
same,Tumor Volume (d 1),[4]; [8],114.53 ± 6.52 mm3
same,Tumor Volume (d 30),[4]; [8],1217.28 ± 267.06 mm3
same,Tumor Weight,[4]; [8],1.76 ± 0.20 g
same,Inhibition Rate (tumor growth inhibition rate),[4]; [9],52.01%
same,Relative Tumor Proliferation Rate (T/C),[4]; [9],50.12%
same,Relative Tumor Volume (RTV),[4]; [9],7.83 ± 2.97
same,Tumor Volume (d 1),[4]; [9],112.00 ± 10.40 mm3
same,Tumor Volume (d 30),[4]; [9],860.48 ± 286.44 mm3
same,Tumor Weight,[4]; [9],1.11 ± 0.54 g
same,Inhibition Rate (tumor growth inhibition rate),"[4]; MDA-MB-231, 50 mg/kg (medium dose) i.g. 30 days, listed as isovaleryl spiramycin III",21.01%
same,Inhibition Rate (tumor growth inhibition rate),[4]; [10],62.93%
same,Relative Tumor Proliferation Rate (T/C),[4]; [10],35.27%
same,Relative Tumor Volume (RTV),[4]; [10],5.51 ± 2.72
same,Tumor Volume (d 1),[4]; [10],115.76 ± 7.04 mm3
same,Tumor Volume (d 30),[4]; [10],647.02 ± 338.62 mm3
same,Tumor Weight,[4]; [10],0.86 ± 0.44 g
same,tumor volume and relative tumor volume compared with the model group,"[4]; MDA-MB-231, low, medium and high doses, P<0.05",significantly lower
same,mouse weight compared with the model group,"[4]; mouse, in vivo",no significant changes
